Columns and labels:
[1] = biological target: T1, α1β3L231Cγ2L GABAA receptors (Homo sapiens, UniProt P14867+P18507+P28472, L256C); experiment: Drug protection from pCMBS modification (SCAMP); type: cell-based; conditions: β3L231C (β–); pCMBS 100 µM x 30 s; […] etomidate, 8 µM R-mTFD-MPAB or 10 µM pTFD-di-iPr-BnOH; n = 5
T1 construct: expressed in transfected cells; host or cells: Xenopus oocytes injected with capped mRNA, 1α:1β:5γ
Procedure: (§1) Experiments were performed in ND-96 buffer at room temperature (20–22°C). Oocytes were placed in a low-volume (30µl) flow chamber and impaled with borosilicate microelectrodes filled with 3M KCl (resistance 0.5–3 MΩ) and voltage-clamped at −50 mV (model OC-725C; Warner Instruments, Hamden, CT, USA). Superfusate solutions in ND-96 were delivered at 2 ml/min from glass syringe reservoirs via computer-controlled valves (VC-8; Warner Instruments), a micro-manifold (ALA-VM8; ALA Scientific Instruments, Farmingdale, NY, USA), and PTFE tubing. Currents were digitized at 200 Hz on a computer running ClampEx v8.0 software (Molecular Devices, San Jose, CA, USA). Digitized traces were filtered with a 10-Hz low-pass Bessel function, leak corrected and analyzed for peak amplitude off-line using Clampfit v8 software (Molecular Devices).
(§2) Drug protection from pCMBS modification was assessed under pCMBS exposure conditions that produced approximately half of the maximal modification ratio for each mutant receptor, and a least a value of 3. This approach balanced the magnitude of functional modification signals (smaller with less pCMBS exposure) against the challenge of using a reversibly bound ligand to competitively block an irreversible covalent cysteine-modifying reaction. […] Each oocyte was used in a single SCAMP experiment. […] Etomidate was used as a positive control for anesthetic protection in α1M236C and β3M286C mutants and as a negative control in α1S270C, α1A291C, β3L231C, γ2S301C, γ2I242C, and γ2L246C mutants. R-mTFD-MPAB was used as a positive control in α1S270C, α1A291C, β3L231C, and γ2LS301C mutants and as a negative control in α1M236C and β3M286C mutants. For each cysteine mutant and protective drug combination, five oocytes were studied.
(§3) Non-linear least squares fits and statistical analyses were performed in Prism 10.4.0. (GraphPad Software, San Diego, CA, USA). […] Protection (steric inhibition of pCMBS modification) was inferred when anesthetics produced significant reductions in modification ratios relative to control (no anesthetic) values. The statistical significance threshold was p < 0.05.

[2] = biological target: T2, α1S270Cβ3γ2L GABAA receptors (Homo sapiens, UniProt P14867+P18507+P28472, S297C); experiment: Drug protection from pCMBS modification (SCAMP); type: cell-based; conditions: α1S270C (α+); pCMBS 1 µM x 90 s; […] etomidate, 8 µM R-mTFD-MPAB or 10 µM pTFD-di-iPr-BnOH; n = 5
T2 construct: expressed in transfected cells; host or cells: Xenopus oocytes injected with capped mRNA, 1α:1β:5γ
Procedure: as §1, §2, §3

[3] = biological target: T3, α1β3M286Cγ2L GABAA receptors (Homo sapiens, UniProt P14867+P18507+P28472, M311C); experiment: Drug protection from pCMBS modification (SCAMP); type: cell-based; conditions: β3M286C (β+); pCMBS 1 µM x 30 s; […] etomidate, 8 µM R-mTFD-MPAB or 10 µM pTFD-di-iPr-BnOH; n = 5
T3 construct: expressed in transfected cells; host or cells: Xenopus oocytes injected with capped mRNA, 1α:1β:5γ
Procedure: as §1, §2, §3

[4] = biological target: T4, α1M236Cβ3γ2L GABAA receptors (Homo sapiens, UniProt P14867+P18507+P28472, M263C); experiment: Drug protection from pCMBS modification (SCAMP); type: cell-based; conditions: α1M236C (α–); pCMBS 10 µM x 30 s; […] etomidate, 8 µM R-mTFD-MPAB or 10 µM pTFD-di-iPr-BnOH; n = 5
T4 construct: expressed in transfected cells; host or cells: Xenopus oocytes injected with capped mRNA, 1α:1β:5γ
Procedure: as §1, §2, §3

[5] = system: α1β3γ2L GABAA receptors, substituted cysteine at β3M227 (β3– M1); design: key: +: Mutant-function studies are deemed positive when bulky mutations (mostly tryptophans) at the site significantly reduce positive modulation by anesthetics; -: Negative results are indicated by “–“ symbols; conditions: previously reported; cited from earlier work

T4 sequence (P14867 28-456 M263C): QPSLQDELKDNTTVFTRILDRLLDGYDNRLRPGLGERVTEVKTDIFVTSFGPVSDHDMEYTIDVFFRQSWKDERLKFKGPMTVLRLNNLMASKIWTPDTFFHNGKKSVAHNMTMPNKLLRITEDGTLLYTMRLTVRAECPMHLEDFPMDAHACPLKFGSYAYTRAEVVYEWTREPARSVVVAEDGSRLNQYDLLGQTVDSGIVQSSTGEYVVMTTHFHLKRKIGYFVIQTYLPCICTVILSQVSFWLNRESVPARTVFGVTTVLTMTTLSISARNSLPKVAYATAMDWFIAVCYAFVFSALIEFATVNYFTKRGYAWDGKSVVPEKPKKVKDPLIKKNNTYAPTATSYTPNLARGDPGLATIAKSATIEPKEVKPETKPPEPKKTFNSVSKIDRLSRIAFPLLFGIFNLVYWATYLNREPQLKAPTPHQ
T4 sequence (P28472 26-473): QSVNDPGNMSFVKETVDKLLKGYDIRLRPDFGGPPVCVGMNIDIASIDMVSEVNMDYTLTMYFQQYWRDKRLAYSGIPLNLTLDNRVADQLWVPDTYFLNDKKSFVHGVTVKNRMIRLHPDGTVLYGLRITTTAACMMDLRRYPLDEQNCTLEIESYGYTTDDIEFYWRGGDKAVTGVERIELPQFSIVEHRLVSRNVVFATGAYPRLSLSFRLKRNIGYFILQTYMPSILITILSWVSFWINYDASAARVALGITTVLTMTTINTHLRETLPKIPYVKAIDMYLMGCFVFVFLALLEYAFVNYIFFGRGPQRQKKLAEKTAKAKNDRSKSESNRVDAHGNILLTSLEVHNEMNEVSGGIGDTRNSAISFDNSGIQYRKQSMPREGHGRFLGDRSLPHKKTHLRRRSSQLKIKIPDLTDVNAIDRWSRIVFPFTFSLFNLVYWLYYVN
T4 sequence (P18507 40-475): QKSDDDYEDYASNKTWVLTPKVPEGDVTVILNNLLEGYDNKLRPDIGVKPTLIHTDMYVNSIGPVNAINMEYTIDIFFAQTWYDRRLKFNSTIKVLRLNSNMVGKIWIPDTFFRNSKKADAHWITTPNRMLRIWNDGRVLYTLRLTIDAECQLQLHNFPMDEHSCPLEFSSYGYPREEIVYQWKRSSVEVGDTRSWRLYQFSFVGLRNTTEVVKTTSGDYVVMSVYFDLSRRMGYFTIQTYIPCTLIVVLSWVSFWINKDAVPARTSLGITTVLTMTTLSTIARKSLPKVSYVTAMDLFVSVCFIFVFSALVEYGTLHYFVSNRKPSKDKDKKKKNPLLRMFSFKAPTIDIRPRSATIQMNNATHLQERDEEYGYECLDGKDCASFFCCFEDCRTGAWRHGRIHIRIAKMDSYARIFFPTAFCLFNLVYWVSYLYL
T1 sequence (P14867 28-456): as the sequence (P14867 28-456 M263C) above, with C236M counted along it
T1 sequence (P28472 26-473 L256C): as the sequence (P28472 26-473) above, with L231C counted along it
T1 sequence (P18507 40-475): as the sequence (P18507 40-475) above
T3 sequence (P14867 28-456): as the sequence (P14867 28-456 M263C) above, with C236M counted along it
T3 sequence (P28472 26-473 M311C): as the sequence (P28472 26-473) above, with M286C counted along it
T3 sequence (P18507 40-475): as the sequence (P18507 40-475) above
T2 sequence (P14867 28-456 S297C): as the sequence (P14867 28-456 M263C) above, with C236M, S270C counted along it
T2 sequence (P28472 26-473): as the sequence (P28472 26-473) above
T2 sequence (P18507 40-475): as the sequence (P18507 40-475) above

C=CCC1(c2cccc(C3(C(F)(F)F)N=N3)c2)C(=O)NC(=O)N(C)C1=O (centres unmarked) [R-mTFD-MPAB, R-5-allyl-1-methyl-5-(m-trifluoromethyl-diazirynylphenyl) barbituric acid]
protection from pCMBS modification (significant reduction of modification ratio vs control, p < 0.05) [1]: protection was also inferred | protection from pCMBS modification (significant reduction of modification ratio vs control, p < 0.05) [2]: protection was inferred

CCOC(=O)c1cncn1[C@H](C)c1ccccc1 [etomidate, R-etomidate]
protection from pCMBS modification (significant reduction of modification ratio vs control, p < 0.05) [3]: protection was inferred | protection from pCMBS modification (significant reduction of modification ratio vs control, p < 0.05) [4]: protection was inferred | SCAMP result, β3– (M1) M227 [5]: -^[9]

Reference: paper PMC12591484 (PLOS One, 2025)
